The values that follow come from patent publication US5514662A, “Use of amphotericin B derivatives as protease inhibitors” (priority 1991, dated 1996).

The term inhibition denotes how much of the control response was suppressed.

Structures are written as SMILES. Where two headings read alike, the source gives them in different places. Bounds are passed on as bounds.

The subject of one data set is viral antigen p24. The data set can be described thus: Expression of soluble viral antigen p24 in HIV-1 infected Jurkat and CEM cells. In kind it is cell-based. As for the experimental part:
(§1) For the infection, fresh Jurkat or CEM type cells are centrifuged and the pellet is incubated for 2 hours at 37° C. with the viral preparation (10000 cpm of reverse transcriptase activity/10^6 cells, which corresponds to a multiplicity of infection of 0.04 to 0.1). The cells are then washed and resuspended (0.5×10^6/ ml) in fresh culture medium. Reverse transcriptase activity is determined at specific times after the infection, using the acellular infected cell supernatant.
The viral antigen p24 was quantified in the infected-cell supernatant by radioimmunological assay using the procedure recommended by the manufacturer (ABBOTT, Diagnostics Division).
The expression of the soluble viral antigen p24 was investigated at the same time as the reverse transcriptase activity, in the cell culture supernatants.
The AmB treatment is carried out under the same conditions as the DABF-AmB treatment.
In another experiment, 10 μM of DABF-AmB are added either during pretreatment 24 hours before the infection, or alternatively during the 2-hour inoculation stage, or alternatively during continuous treatment, as described above, for 12 days following the infection.

In data set [1] the test system is HIV-1 isolates derived from patients. Briefly: Infection of PBMCs by HIV-1 isolates derived from patients. In kind it is cell-based. The following applies: 10 μM, 10 viral strains derived from patients, RT activity after 10 days. As for the experimental part:
PBMCs were infected under the conditions described above in the general procedures, with various HIV-1 isolates derived from patients, or identified as resistant to AZT. The anti-viral effect of DABF-AmB was determined by measuring the RT activity in the supernatants after 10 days of culture.

Another data set deals with T1, trypsin (Bos taurus, UniProt P00760).
T1 sequence (P00760 24-246): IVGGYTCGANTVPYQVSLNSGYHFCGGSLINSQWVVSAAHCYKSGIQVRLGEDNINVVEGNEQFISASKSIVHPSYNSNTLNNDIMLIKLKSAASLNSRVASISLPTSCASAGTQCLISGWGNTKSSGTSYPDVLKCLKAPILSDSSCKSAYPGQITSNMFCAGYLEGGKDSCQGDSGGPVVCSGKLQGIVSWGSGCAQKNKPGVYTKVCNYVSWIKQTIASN
The data set can be described thus: Inhibition of trypsin. In kind it is biochemical.

The test system of another data set is HIV-1. Briefly: Reverse transcriptase activity in HIV-1 infected PBMCs. It is filed as cell-based. The procedure: (§2) The T cells (Jurkat and CEM) used are very permissive to HIV infection. They are cultured in RPMI 1640 medium supplemented with 10% foetal calf serum, 2 mM of glutamine and a mixture of penicillin and streptomycin. The peripheral blood mononuclear cells are obtained from blood from healthy donors, isolated on a Ficoll Hypaque gradient and stimulated with 10 μg/ml of phytohaemagglutinin A (PHA), for two days, in RPMI 1640 medium supplemented, prior to the infection by HIV, with amikacin and vancomycin (10 mg/ml), polybrene (1 mg/ml) and anti-interferon gamma serum (5 U/ml). After infection, the PBMCs are cultured (10^5 per well) in flat-bottomed 96-well plates in the same RPMI 1640 medium (200 μl per well).
The PBMCs cells (2×10^6 /ml) are infected with the same viruses and under the same conditions as the Jurkat or CEM cells. They are then washed and resuspended in fresh culture medium in flat-bottomed 96-well plates (10^5 cells per well in […]).
(§3) The reverse transcriptase activity is determined at the indicated times using the culture supernatant, according to the procedure described by REY et al., Biochem. Res. Comm. 121, 126-133 (1984).
PBMCs isolated from healthy individuals are infected with HIV-1. The production of antigen p24 as well as the reverse transcriptase activity can be detected in the supernatants of cultures infected 3 days after the infection. The maximum reverse transcriptase activity and p24 synthesis are observed between the 6th and 7th day, and the 5th and 6th day respectively. No cell death is observed at this time.
The infected PBMCs are treated continuously as described above for the Jurkat and CEM cells, using increasing concentrations of DABF-AmB.
The effect of DABF-AmB on the reverse transcriptase activity and on the secretion of p24 is evaluated on the 6th day.

The subject of another data set is CEM cells. Briefly: Cell viability of CEM cells. It is filed as cell-based, human. The conditions noted are these: concentrations above 100 μM. The source says:
Cell viability was estimated at the same time. […] It therefore appears that DABF-AmB inhibits the replication of HIV at doses which are not cytotoxic.

The next data set concerns PBMCs. Briefly: Cytotoxicity on PBMCs. In kind it is cell-based, human. The following applies: concentrations up to 10^-3 M.
The test system of a further data set is LAV/BRU strain of HIV-1. The data set can be described thus: Reverse transcriptase activity in supernatants of HIV-1 infected Jurkat and CEM cells. It is filed as cell-based. As for the experimental part: as §2
Infectious preparations of the LAV/Bru strain of HIV-1 are obtained from chronically infected CEM cell (clone 13) culture supernatants filtered through a 0.45-μm filter.
as §1, §3
The Jurkat and CEM type T cells are infected with the LAV/BRU strain of HIV-1.
Viral infection and replication are monitored by measuring the reverse transcriptase activity in the culture supernatants.
To measure the anti-HIV activity of DABF-AmB, infected cells are cultured in the presence of increasing doses (between 0.1 μM and 100 μM) of the product; […] kept constant during the infection by carrying out a one half dilution, every 3 days, of the growing cells in fresh medium containing the desired concentration.
The corresponding results are illustrated in FIGS. 3b and 3d: the reverse transcriptase activity measured on the 8th day of the viral infection is represented on the y axis and the DABF-AmB concentration on the x axis.

The test system of another data set is CD3. Briefly: Membrane antigen CD3 in HIV-1 infected cells. It is filed as cell-based, human. The conditions noted are these: treated or untreated infected cells. As for the experimental part: Immunofluorescence analyses are carried out on the 8th day of the infection in order to verify whether the inhibition of HIV replication by DABF-AmB results in 10 a reduced membrane expression of viral antigens.

In another data set the target is protease p10 (Human immunodeficiency virus type 1 (BRU ISOLATE), UniProt P03367). The data set can be described thus: Activity on recombinant protease p10. It is filed as biochemical. The conditions noted are these: 1 μM for DABF-AmB. The procedure:
DABF-AmB was tested, at a concentration of 1 μM, on various proteases (papain, chymotrypsin, kallicrein, leucocyte elastase, cathopsin D and recombinant protease p10) under conditions and in the presence of substrates appropriate for each of the proteases tested.

[2] abbreviates: 10 μM added during the 2-hour inoculation stage.
Where [3] appears, read: 10 μM added prior to infection (24 hours pretreatment).

For the compound `C[C@@H]1[C@H](O)[C@@H](C)/C=C/C=C/C=C/C=C/C=C/C=C/C=C/[C@H](O[C@@H]2O[C@H](C)[C@@H](O)[C@H](NCC(=O)[C@@H](O)[C@@H]3OC(c4ccccc4)OC[C@H]3O)[C@@H]2O)C[C@@H]2O[C@](O)(C[C@@H](O)C[C@@H](O)[C@H](O)CC[C@@H](O)C[C@@H](O)CC(=O)O[C@H]1C)C[C@H](O)[C@H]2C(=O)O` (stereo partly drawn) [DABF-AmB, 1-deoxy-1-amino-4,6-O-benzylidene-D-fructosyl-AmB], the “inhibition of p24 secretion” value with viral antigen p24 (setting [2]) and with viral antigen p24 (setting [3]) was “does not bring about any significant inhibition” throughout. Further, the minimal effective concentration with viral antigen p24 (Human immunodeficiency virus 1, 288 h, read-out: concentration for significant inhibition of p24) is more than 5 µM; in the data set with LAV/BRU strain of HIV-1 (Human immunodeficiency virus 1, 192 h, Jurkat and CEM cells, 8th day, read-out: concentration from which inhibition of reverse transcriptase activity is observed), not below 5 µM. For the same compound, the “efficacy on the multiplication of HIV compared with AmB” value in the data set with viral antigen p24 (p24, 10 μM, 4 and 8 days) is listed as “substantially greater than that of AmB”. For the same compound, the “inhibition of infection of PBMC” value in data set [1] is given as “substantially reducing, or even completely inhibiting”. The inhibition at 1 µM on trypsin (1 μM, FIG. 1, read-out: % inhibition of trypsin relative to a control without inhibitor) is more than 60%; on trypsin (10^-6 M, read-out: % of inhibition of trypsin), 50%. Also, the inhibition at 100 µM against trypsin (10^-4 M) was found to be 100%. The “inhibition of trypsin (in words)” value against trypsin (10^-4 M) was “Total inhibition”. The inhibition at 10 µM against trypsin (10^-5 M) is 95%; with HIV-1 (Human immunodeficiency virus 1, PBMC, 144 h, PBMCs, 10 μM, 6th day, N=3) it was 92 ± 4%; in the data set with LAV/BRU strain of HIV-1 (Human immunodeficiency virus 1, 192 h, Jurkat and CEM cells, 10 μM, 8th day, N=4) it was 88%. Besides, at trypsin (10^-7 M), the inhibition at 0.1 µM was 20%. Besides, the “increase in the anti-HIV action in PBMCs” value in the data set on HIV-1 (concentrations above 20 μM) is given as “do not bring about a significant increase”. Further, the “anti-HIV inhibition in PBMCs (in words)” value in the data set with HIV-1 (concentrations below 1 μM) is recorded as “only a low inhibition”. The cytotoxic effect result in the data set with CEM cells is “no cytotoxic effect”. Moreover, the “cytotoxic effect on PBMCs” value in the data set with PBMCs is “without cytotoxic effect”. Further, the “inhibition of reverse transcriptase activity” value in the data set on LAV/BRU strain of HIV-1 (setting [2]) and in the data set on LAV/BRU strain of HIV-1 (setting [3]) was “does not bring about any significant inhibition” in each case. Also, the “inhibition of reverse transcriptase activity (in words)” value in the data set on LAV/BRU strain of HIV-1 (Jurkat and CEM cells, concentrations below 1 μM) is given as “No significant inhibition”. In addition, in the data set with CD3, the “level of the membrane antigen CD3” value is recorded as “unchanged”. Moreover, the “inhibition of protease p10” value on protease p10 is “does not inhibit”.
